Data reported in patent publication US20100069498A1 (ESSENTYS AB, priority 2003, published 2010).
“And” between values parts separate entries of the source, which are not always exact repeats. Identical values can stand only once.

Assays:
[1] = Mean luminal disappearance of a duodenal AKG bolus; assay type: in vivo, pigs; conditions: duodenal bolus 1040 μmol/kg
Protocol: After 1 h, pigs were sacrificed.
The small intestine was carefully clamped at the proximal duodenum and distal ileum, removed and flushed with 2×50 mL of saline to wash the intestine.

[2] = Excerpt: Female piglets (n=9) were purchased from the Texas Department of Criminal Justice, Huntsville, Tex.
Pigs (14 d of age) arrived at the Children's Nutrition Research Center and for a 7-day adjustment period were fed a liquid milk replacer diet (Litter Life, Merrick, Middleton, Wis.) at a rate of 50 g/(kg·d).
Briefly, under isoflurane anesthesia and aseptic conditions, the piglets were implanted with a polyethylene catheter (o.d., 1.27 mm, Becton Dickinson, Sparks, Md.) in the common portal vein, and silastic catheters (o.d., 1.78 mm) in an external jugular vein and a carotid artery.
An ultrasonic flow probe (8 to 10 mm i.d., Transonic, Ithaca, N.Y.) was placed around the portal vein.
A silicone catheter (o.d., 2.17 mm, Baxter Healthcare, McGaw Park, Ill.) was implanted into the lumen of the duodenum. The catheters were filled with sterile saline containing heparin (2.5×10^4 U/L), and exteriorized on either the left flank (portal and duodenal catheters, flow probe leads) or between the scapulae (jugular and carotid catheters).
For plasma amino acid analysis, a 0.2 mL aliquot of plasma was mixed with an equal volume of an aqueous solution of methionine sulfone (4 mmol/L) and centrifuged at 10,000×g for 120 min through a 10-kDa cutoff filter.
A 50 μL aliquot of the filtrate was dried and the amino acids were analyzed by reverse-phase HPLC of their phenylisothiocyanate derivatives (Pico Tag, Waters, Woburn, Mass.).
Plasma ammonia was determined using a spectrophotometric assay kit (171-C, Sigma-Aldrich, St. Louis, Mo.).
Plasma glucose was determined using a spectrophotometric assay kit (315-100; Sigma-Aldrich, St. Louis, Mo.).
Net portal balance of metabolites [μmol/(kg·h)] was calculated as follows:
(Conc.PORT−Conc.ART)×PBF (1)
when Conc. is the concentration in the blood (μmol/L), PORT and ART refer to portal and arterial blood and PBF is portal blood flow [L/(kg·h)].
Piglets were deprived of food for 15 h before initiation of the experiment.
On the day of the experiment, at time −1 h, a primed (7.75 mL/kg; 25% wt/wt aqueous solution; oral), continuous duodenal infusion of milk replacer [Litter Life, Merrick, Middleton, Wis.; 7.75 mL/(kg·h)] prepared as a 25% (wt/wt) aqueous solution which provided ˜920 kJ and 12.5 g protein/(kg·d).

Remark: listed apart in the source
[3] = AKG infusion 930 μmol/(kg·h), P<0.01
[4] = AKG treatment, P<0.05, data not shown
[5] = piglets, duodenal infusion 930 μmol/(kg·h) AKG (3.75% of diet dry matter), ± SEM
[6] = pigs, duodenal infusion 930 μmol/(kg·h) AKG, n = 5
[7] = pigs, duodenal infusion 930 μmol/(kg·h) AKG, n = 5, LSMean ± SEM

For `O=C(O)CCC(=O)C(=O)O` [AKG, alpha-ketoglutaric acid], the “Share of the AKG bolus disappeared from the lumen of the duodenum” value ([1]; 1 h) was “approximately 64%”, the “Luminal disappearance as share of the 1040 μmol/kg of infused AKG” value ([1]; pigs, one hour) was 63.8 and the “Effect on net portal appearance of glutamate” value ([2]; AKG infusion) was “not affected”. The “Effect on net portal appearance of glutamine” value ([2]; AKG infusion) was “not affected”, the “Effect on net portal balance of AKG vs control” value ([2]; AKG infusion 930 μmol/(kg·h)) was “increased” and the “Effect on arterial AKG concentration vs control” value [2, 3] was “increased”. The “Effect on portal AKG concentration vs control” value [2, 3] was “increased”, the “Increase in proline net portal balance” value ([2]; AKG treated pigs vs control) was 138.1 µmol/kg/h and the “Effect on ammonia net portal balance vs control” value ([2]; AKG treatment, duodenal infusion) was “not affected”. The “Effect on net portal balance of glucose vs control” value ([2]; AKG treatment, duodenal infusion, P<0.05) was “decreased”, the “Effect on portal mass balance of leucine vs control” value ([2]; AKG treatment, P<0.05) was “increased” and the “Effect on portal mass balance of lysine vs control” value ([2]; AKG treatment, P<0.05) was “increased”. The “Effect on portal mass balance of proline vs control” value ([2]; AKG treatment, P<0.05) was “increased”, the “Effect on arterial concentration of proline vs control” value [2, 4] was “increased” and the “Effect on portal concentration of proline vs control” value [2, 4] was “increased”. For the same compound, the “Effect on portal mass balance of isoleucine vs control” value ([2]; AKG treatment, P<0.10) was “tended (P<0.10) to increase”, the “Effect on portal leucine concentration vs control” value ([2]; AKG treatment, data not shown) was “tended (P<0.01) to be increased” and the “AKG unaccounted for in the portal balance” value ([2]; duodenal infusion 930 μmol/(kg·h) AKG) was “over 800 μmol/(kg·h)”. The “AKG net portal balance, % of infused” value ([2]; piglets, duodenal infusion 930 μmol/(kg·h) AKG) was 10.23 % of infused and 10 % of infused and 10.23 ± 0.57 % of infused, the “AKG net portal balance” value [2, 5] was 95 µmol/kg/h and 95.2 ± 12 µmol/kg/h and the “Ammonia net portal balance” value [2, 5] was 561.1 ± 53 µmol/kg/h. The “Arterial AKG” value [2, 5] was 27.4 ± 3.6 µmol/L, the “Glucose net portal balance” value [2, 5] was 203.9 ± 69 mg/(kg · h) and the “Portal AKG” value [2, 5] was 64.6 ± 5.9 µmol/L. The “Net portal balance of Alanine, % of Intake” value [2, 6] was 189.0 % of Intake, the “Net portal balance of Arginine, % of Intake” value [2, 6] was 98.3 % of Intake and the “Net portal balance of Aspartate, % of Intake” value [2, 6] was 9.6 % of Intake. The “Net portal balance of Glutamate, % of Intake” value [2, 6] was 18.6 % of Intake, the “Net portal balance of Glycine, % of Intake” value [2, 6] was 116.0 % of Intake and the “Net portal balance of Histidine, % of Intake” value [2, 6] was 71.4 % of Intake. For the same compound, the “Net portal balance of Isoleucine, % of Intake” value [2, 6] was 140.0 % of Intake, the “Net portal balance of Leucine, % of Intake” value [2, 6] was 113.4 % of Intake and the “Net portal balance of Lysine, % of Intake” value [2, 6] was 98.8 % of Intake. For the same compound, the “Net portal balance of Phenylalanine, % of Intake” value [2, 6] was 98.7 % of Intake, the “Net portal balance of Proline, % of Intake” value [2, 6] was 114.5 % of Intake and the “Net portal balance of Serine, % of Intake” value [2, 6] was 108.3 % of Intake. The “Net portal balance of Threonine, % of Intake” value [2, 6] was 75.7 % of Intake, the “Net portal balance of Tyrosine, % of Intake” value [2, 6] was 135.9 % of Intake and the “Net portal balance of Valine, % of Intake” value [2, 6] was 108.9 % of Intake. The “Net portal balance of Alanine” value [2, 7] was 557.8 ± 48 µmol/kg/h, the “Net portal balance of Arginine” value [2, 7] was 109.0 ± 19 µmol/kg/h and the “Net portal balance of Asparagine” value [2, 7] was 185.6 ± 18 µmol/kg/h. The “Net portal balance of Aspartate” value [2, 7] was 29.7 ± 6.0 µmol/kg/h, the “Net portal balance of Glutamate” value [2, 7] was 80.1 ± 17 µmol/kg/h and the “Net portal balance of Glutamine” value [2, 7] was 25.5 ± 45 µmol/kg/h. The “Net portal balance of Glycine” value [2, 7] was 177.2 ± 20 µmol/kg/h, the “Net portal balance of Histidine” value [2, 7] was 45.9 ± 3.8 µmol/kg/h and the “Net portal balance of Phenylalanine” value [2, 7] was 95.2 ± 11 µmol/kg/h. The “Net portal balance of Serine” value [2, 7] was 244.7 ± 64 µmol/kg/h, the “Net portal balance of Threonine” value [2, 7] was 210.9 ± 18 µmol/kg/h and the “Net portal balance of Tryptophan” value [2, 7] was 47.2 ± 4.3 µmol/kg/h. For the same compound, the “Net portal balance of Tyrosine” value [2, 7] was 115.8 ± 17 µmol/kg/h, the “Net portal balance of Valine” value [2, 7] was 279.3 ± 32 µmol/kg/h and the “Effect on production of CO2 in the whole body” value (AKG infusion) was “did not increase”. The “Effect on NOLD (non-oxidative leucine disposal) vs control” value (AKG treatment, FIG. 1) was “not affected”, the “Effect on Ra (leucine appearance rate) vs control” value (AKG treatment, FIG. 1) was “not affected” and the “Effect on whole-body leucine oxidation vs control” value (AKG treatment, FIG. 1) was “not affected”.
